Measured values reported in PMC7570620, “Synthesis and Evaluation of the Antitumor Activity of Novel 1-(4-Substituted phenyl)-2-ethyl Imidazole Apoptosis Inducers In Vitro” (Molecules, 2020).

Tests used:
HeLa = assay: MTT cell viability assay, HeLa; format: cell-based; settings: Homo sapiens, 24 h incubation, mean ± SD, n = 4
Description: (§1) The synthesized compounds were subjected to a cytotoxicity assay using the MTT method, as described previously. IC50 is defined as the drug concentration causing a 50% reduction in cell numbers compared to the untreated control. For screening, we evaluated the effects of the compounds on the growth of three cancer cell lines (A549, SGC-7901, and HeLa). In addition, their toxicities were tested using one normal cell line (L-02). The results are the averages of four separate measurements. MTX and 5-FU served as positive controls.
(§2) The three cancer cell lines namely the human lung cancer cell line (A549), human cervical cancer cell line (HeLa), human gastric carcinoma cell line (SGC-7901), and normal liver cell line (L-02) were acquired from the American Type Culture Collection (Manassas, VA, USA). A549 and SGC-7901 cells were routinely cultured in RPMI-1640. In addition, HeLa and L-02 cells were routinely cultured in DMEM. Media was supplemented with 10% fetal bovine serum (FBS). Cells were maintained at subconfluency at 37 °C in humidified air containing 5% CO2. The cells were monitored daily and maintained at 80% cell density. All compounds tested were dissolved in DMSO and then diluted by the culture medium before the treatment of cultured cells.
(§3) Cytotoxicity of the tested samples was measured against each cell line using the 3-(4,5-dimethylthiazol-2-yl)-2,5-diphenyltetrazolium bromide (MTT) cell viability assay (Maher et al., 2019). Cancer cells (A549, SGC-7901, and HeLa) and L-02 normal cells were harvested during the logarithmic growth phase. All cells were seeded in 96-well plates at 10^4 cells/well and were treated with 5-fluorouracil (5-FU), methotrexate (MTX), and the tested samples for 24 h at final concentrations of […]. Next, 20 µL of freshly prepared MTT (Solarbio) solution (5 mg/mL of MTT in PBS) was added to each well, and the cells were cultured for 4 h at 37 °C. The supernatants were removed and resolved with 100 µL of DMSO, and the cells were shocked for 10 min at 37 °C. The optical density of the samples was measured at 490 nm using a microplate luminometer. Cell viability was expressed as the percentage change in absorbance compared to the control values.

A549 = assay: MTT cell viability assay, A549; format: cell-based; settings: Homo sapiens, 24 h incubation, mean ± SD, n = 4
Description: as §1, §2, §3

SGC-7901 = assay: MTT cell viability assay, SGC-7901; format: cell-based; settings: Homo sapiens, 24 h incubation, mean ± SD, n = 4
Description: as §1, §2, §3

L-02 = assay: MTT cytotoxicity in normal cell line L-02; format: cell-based; settings: for IC50: Homo sapiens, L02, normal cell line L-02, MTT; for Selectivity Index A549: IC50 in normal cells (L-02)/IC50 in tumor cells (A549); for Selectivity Index HeLa: IC50 in normal cells (L-02)/IC50 in tumor cells (HeLa); for Selectivity Index SGC-7901: IC50 in normal cells (L-02)/IC50 in tumor cells (SGC-7901)
Description: as §1
The lack of selectivity between normal and cancer cells is one of the primary limitations of antitumor drugs. We evaluated the cytotoxicity of compounds 4c, 4e–4i, 4l, 4m, and 4q in the normal cell line L-02 to determine the selectivity index (defined as the ratio of cytotoxicity in L-02 cells compared to that in cancer cells). […] Compound 4q yielded satisfactory SI values in HeLa and SGC-7901 cells but an unsatisfactory SI value in A549 cells. […] Compound 4f was selected for the subsequent biological studies.
as §2, §3

HeLa cells [1] = assay: Hoechst/PI double staining apoptosis analysis; format: cell-based, human; settings: 24 h, 4f 3.24 µM (legend: 4 µM), 5-FU 18 µM
Description: Apoptosis and necrosis were analyzed by Hoechst/propidium iodide (CA1120, Solarbio, Beijing, China) double staining. HeLa cells were seeded in six-well plates (10^4 cells/well) and treated with IC50 concentrations of 5-FU or one of the tested derivatives for 0, 3, 6, 12, and 24 h. Next, the cells were collected and washed once in phosphate-buffered saline (PBS). The cells were then resuspended in 195 µL of binding buffer, and dual staining was performed with 3 µL of Hoechst and 3 µL of PI. Next, the cells were incubated for 15 min at room temperature in the dark. Apoptotic cells were analyzed using the EVOS FL Auto Cell Imaging System (Thermo Fisher Scientific, Shanghai, China).
(A) HeLa cells were treated with 4 µM of 4f or 18 µM of 5-FU for 0, 3, 6, 12, or 24 h and were stained using the Hoechst/PI solution. Morphology and fluorescence intensity were examined under a fluorescence microscope (magnification: ×200). (B) Quantification of the percentages of apoptotic cells. Error bars indicate the mean ± SD of three independent experiments (* p < 0.05, ** p < 0.01, and *** p < 0.001 indicate significant differences).

HeLa cells [2] = assay: Western blot of apoptotic proteins; format: cell-based, human
Description: The results of the Western blot analysis were expressed as the relative ratio of the specific compound band compared with the internal reference.
For performing Western blot analysis, the cells were washed with PBS and lysis buffer (P0013B, Beyotime). After incubation on ice for 30 min, the homogenate was centrifuged at 12,000g for 15 min at 4 °C, and the supernatant was used for protein analysis. Protein concentration was determined using the BCA protein assay (P0012S, Beyotime, Beijing, China). Sodium dodecyl sulfate-polyacrylamide gel electrophoresis was performed using the Bio-Rad Mini-Protean Tetra System (Bio-Rad, Hercules, CA, US). The proteins on the gel were then transferred onto polyvinylidene fluoride membranes (PVDF, Millipore, Beijing, China) for 2 h at 200 mA and blocked for 2 h with 5% skim milk at room temperature to prevent nonspecific binding. The blots were probed with the indicated primary antibodies followed by horseradish peroxidase (HRP)-conjugated goat anti-rabbit or anti-mouse IgG (Beyotime). Rabbit anti-Bcl-2 and mouse anti-actin antibodies were purchased from Beyotime. Rabbit anti-Bax, anti-Caspass-3, and anti-PARP monoclonal antibodies were purchased from Cell Signaling Technology (Danvers, MA, USA).
Figure 4 Apoptotic effects of 4f on HeLa cells. (A) The effect of compound 4f on the expression levels of Bax, Bcl-2, Caspase 3, and cle-PARP in HeLa cells was analyzed using Western blotting. (B) Densitometric quantification. * p < 0.05, ** p < 0.01, and *** p < 0.001 relative to the control group (0 h). Bcl-2, B-cell lymphoma 2; Bax, […]; cle-PARP, cleaved poly ADP-ribose polymerase.

[3] = tested on: lung and liver cancer cells; assay: Preliminary in vitro antitumor activity of lead compounds I and II; format: cell-based; settings: preliminary work of this paper; Figure 2
Text: To identify new apoptosis-inducing candidates, we attempted to modify the structure of imidazole and its analogs. Imidazole and the related azole moiety are significant pharmacophores in various clinical drugs including antitumor agents. […] The antitumor potency of Tanshinone-IIA has been enhanced by the introduction of an imidazole moiety (Figure 1, TA12) in order to block cancer cell invasion and metastasis in vivo [16]. […] Previously, we reported a series of imidazole-fused quinoline compound I and its open-chain analogue compound II, 2-ethyl-1-phenyl-1H-imidazole (Figure 2). […] We speculated that its flexible structure caused this difference in antitumor activity. However, both their antitumor activities were not strong enough as a potent antitumor agent. So, using compound II as a lead, we designed and synthesized several structurally modified derivatives. The effects of LogP and hydrogen bonds on bioavailability were considered, and several aliphatic and aromatic amines were selected and linked to the 1-phenyl imidazole scaffold using a succinyl group as a cross-linker. This approach yielded several novel imidazole derivatives with cLogP values ranging from 1.99 to 4.34.
Figure 2 Title compounds design. Yellow: pharmacophore and Blue: aliphatic/aromatic amine. TEXT PRINTED IN THE PICTURE: I: 300 uM< IC50 < 500 uM | II: 100 uM < IC50 < 300 uM

Work on `CCc1nccn1-c1ccc(NC(=O)CCC(=O)Nc2ccc(Cl)cc2)cc1` [Compound 4e, 1-(4-(3-(4-Cl-Phenylcarbamoyl)propionamide)phenyl)-2-ethyl Imidazol] yielded an IC50 (HeLa) of 13.3 ± 1.37 µM, an IC50 (A549) of 43.4 ± 5.42 µM and a melting point of 184 to 188 °C. The IC50 (SGC-7901) was 10.6 ± 1.75 µM, the IC50 (L-02) was 313 ± 18 µM and the “Selectivity Index A549” value (L-02) was 7.22. The “Selectivity Index HeLa” value (L-02) was 23.58 and the “Selectivity Index SGC-7901” value (L-02) was 29.48.

For `CCc1nccn1-c1ccc(NC(=O)CCC(=O)Nc2ccc(Br)cc2)cc1` [Compound 4f, 1-(4-(3-(4-Br-Phenylcarbamoyl)propionamide)phenyl)-2-ethyl Imidazol], the apoptosis rate (HeLa cells [1]) was 68.2%, the IC50 (HeLa) was 3.24 ± 0.23 µM and the IC50 (A549) was 6.6 ± 0.36 µM. For the same compound, the IC50 (SGC-7901) was 5.37 ± 0.85 µM, the “expression of Bcl-2” value (HeLa cells [2]; 3.24 µM, time-dependent 3–24 h) was “decreased” and the “expression of the Bax protein” value (HeLa cells [2]; 3.24 µM, time-dependent 3–24 h) was “significantly increased”. For the same compound, the Caspase-3 expression increase (HeLa cells [2]; 24 h after treatment, 4f 3.24 µM) was 134.3%, the IC50 (L-02) was 152 ± 10.8 µM and the “Selectivity Index A549” value (L-02) was 23.03. The “Selectivity Index HeLa” value (L-02) was 46.92, the “Selectivity Index SGC-7901” value (L-02) was 28.31 and the “Selectivity index, tolerance of normal L-02 cells versus tumor cells” value (L-02; range over the three tumor cell lines) was 23–46 fold.

For `CCc1nccn1-c1ccc(NC(=O)CCC(=O)Nc2ccc(F)cc2)cc1` [Compound 4g, 1-(4-(3-(4-F-Phenylcarbamoyl)propionamide)phenyl)-2-ethyl Imidazol], the IC50 (HeLa) was 16.5 ± 1.48 µM, the IC50 (A549) was 13.8 ± 1.92 µM and the melting point was 75 to 78 °C. For the same compound, the IC50 (SGC-7901) was 14 ± 2.29 µM, the IC50 (L-02) was 42.6 ± 6.37 µM and the “Selectivity Index A549” value (L-02) was 3.10. The “Selectivity Index HeLa” value (L-02) was 2.58 and the “Selectivity Index SGC-7901” value (L-02) was 3.04.

Compound `CCc1nccn1-c1ccc(NC(=O)CCC(=O)Nc2ccc(C)cc2)cc1` [Compound 4h] has an IC50 (HeLa) of 6.31 ± 0.79 µM, an IC50 (A549) of 32.2 ± 4.79 µM and a melting point of 200 to 202 °C. For the same compound, the IC50 (SGC-7901) was 13.1 ± 3.02 µM, the IC50 (L-02) was 290 ± 26.6 µM and the “Selectivity Index A549” value (L-02) was 9.00. The “Selectivity Index HeLa” value (L-02) was 45.94 and the “Selectivity Index SGC-7901” value (L-02) was 22.10.

In the case of `CCc1nccn1-c1ccc(NC(=O)CCC(=O)Nc2ccc(OC)cc2)cc1` [Compound 4i, 1-(4-(3-(4-Methoxybenzecarbamoyl)propionamide)phenyl)-2-ethyl Imidazole], the IC50 (HeLa) is reported as 7.01 ± 1.3 µM, the IC50 (A549) is reported as 23.8 ± 7.16 µM and the melting point is reported as 160 to 163 °C. The IC50 (SGC-7901) was 15.5 ± 2.84 µM, the IC50 (L-02) was 210 ± 25.5 µM and the “Selectivity Index A549” value (L-02) was 8.81. The “Selectivity Index HeLa” value (L-02) was 29.89 and the “Selectivity Index SGC-7901” value (L-02) was 13.55.

With `CCc1nccn1-c1ccc(NC(=O)CCC(=O)NCc2ccc(Cl)cc2)cc1` [Compound 4l, 1-(4-(3-(4-Cl-Benzylcarbamoyl)propionamide)phenyl)-2-ethyl Imidazol] the IC50 (HeLa) was 7.04 ± 1.07 µM, the IC50 (A549) was 11 ± 1.31 µM and the melting point was 138 to 142 °C. The IC50 (SGC-7901) was 8.39 ± 1.11 µM, the IC50 (L-02) was 114 ± 16.7 µM and the “Selectivity Index A549” value (L-02) was 10.36. For the same compound, the “Selectivity Index HeLa” value (L-02) was 16.13 and the “Selectivity Index SGC-7901” value (L-02) was 13.53.

Compound `CCc1nccn1-c1ccc(NC(=O)CCC(=O)NCc2ccc(Br)cc2)cc1` [Compound 4m, 1-(4-(3-(4-Br-Benzylcarbamoyl)propionamide)phenyl)-2-ethylimidazole] has an IC50 (HeLa) of 4.07 ± 0.59 µM, an IC50 (A549) of 28.6 ± 2.51 µM and a melting point of 143 to 145 °C. The IC50 (SGC-7901) was 15.2 ± 1.74 µM, the IC50 (L-02) was 210 ± 20.3 µM and the “Selectivity Index A549” value (L-02) was 7.35. For the same compound, the “Selectivity Index HeLa” value (L-02) was 51.59 and the “Selectivity Index SGC-7901” value (L-02) was 13.85.

`CCc1nccn1-c1ccc(NC(=O)CCC(=O)NCc2ccccc2Cl)cc1` [Compound 4q] gave an IC50 (HeLa) of 4.91 ± 0.71 µM, an IC50 (A549) of 31.1 ± 3.81 µM and a melting point of 116 to 120 °C. The IC50 (SGC-7901) was 2.96 ± 0.29 µM, the IC50 (L-02) was over 500 µM and the “Selectivity Index SGC-7901” value (L-02) was over 168.92.

In the case of `O=c1[nH]cc(F)c(=O)[nH]1` [Compound 5-FU, 5-fluorouracil, reference compound], the apoptosis rate (HeLa cells [1]) is reported as 39.6%, the IC50 (HeLa) is reported as 18.3 ± 1.52 µM and the IC50 (A549) is reported as 22.6 ± 2.59 µM. The IC50 (SGC-7901) was 16.4 ± 0.88 µM, the IC50 (L-02) was 74.7 ± 7.85 µM and the “Selectivity Index A549” value (L-02) was 3.30. The “Selectivity Index HeLa” value (L-02) was 4.08 and the “Selectivity Index SGC-7901” value (L-02) was 4.57.

With `CCc1nccn1-c1ccccc1` [II, 2-ethyl-1-phenyl-1H-imidazole] the IC50 [3] was 100 to 300 µM.
